Reference: PMC8386120, “Crystal Structure of Inorganic Pyrophosphatase From Schistosoma japonicum Reveals the Mechanism of Chemicals and Substrate Inhibition” (Frontiers in Cell and Developmental Biology, 2021)
Blank lines part the entries; values can stand above or below the compound they belong to.

Legend:
[1] = target: Schistosoma japonicum soluble inorganic pyrophosphatase (recombinant SjPPase) (Schistosoma japonicum); assay: crystal structure; X-ray crystal structures of apo-SjPPase (4QMB) and of SjPPase with Pi and cobalt ions (4QLZ); space group P32, two molecules in the asymmetric unit; first crystals from 0.2 M sodium malonate, 20% PEG 3,350, later optimised; protein at 16-18 mg/ml
[2] = target: T1, SjPPase (Schistosoma japonicum, UniProt Q5DE13); assay: Pi release, PiPer fluorescence phosphate assay; assay type: biochemical; set-up: homodimer; crystal residues 1-284 and 1-283; conditions: 1 and 2 mM MDP; PPi substrate, Mg2+, 25 C
T1 sequence (Q5DE13 1-287): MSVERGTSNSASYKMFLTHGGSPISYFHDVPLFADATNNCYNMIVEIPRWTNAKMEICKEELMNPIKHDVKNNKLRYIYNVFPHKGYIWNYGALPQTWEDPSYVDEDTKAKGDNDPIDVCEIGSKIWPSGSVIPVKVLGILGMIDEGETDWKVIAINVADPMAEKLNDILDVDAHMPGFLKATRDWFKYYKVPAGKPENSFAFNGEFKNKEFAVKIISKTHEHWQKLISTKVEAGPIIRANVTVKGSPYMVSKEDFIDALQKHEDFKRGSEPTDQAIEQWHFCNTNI

[3] = target: T1, SjPPase; conditions: Co2+ bound; active site, P2 site (F intermediate)

stoichiometry N [1]: 2
Compound: Schistosoma japonicum soluble inorganic pyrophosphatase (recombinant SjPPase) (enzyme)

Compound: O=P(O)(O)CP(=O)(O)O [methylene diphosphonic acid]
inhibition [2]: inhibitors NaF and MDP inhibited the enzymatic activity of SjPPase

Compound: O=P(O)(O)O [orthophosphate]
X-ray crystal structure, 2.33 A [3]: the Pi in the SjPPase-Pi complex structure is at the P2 site
